Legend:
Format in all cases: in vivo
[1] = system: spring barley, HORVS Montoya; assay: Seed treatment with safener; post-emergence herbicide, crop damage; settings: 21 DAT; for HER effect + SAF / Reduction [%] / Reduction [Difference]: mefenpyr-diethyl 0.5 g a.i./kg seed
From the text: (§1) For safener seed treatment trials, sufficient seed amounts of the respective crops (spring wheat (TRZAS); spring barley (HORVS)) were weighed into screw cap glass bottles with a minimum volume trice of the seeds.
(§2) As a first step, specified safeners formulated as wettable powder (WP) or wettable granules (WG) were weighed out for the required dosages (g a.i./kg seed), corresponding to the seed amounts. The safener amounts were mixed with a coloured slurry blind formulation type, prediluted with milk at 3.5% fat rate (25 mgs slurry formulation plus 2 ml milk per 10 grams of seed). A tube roller was used for coating. The solutions were gradually pipetted each on the rotating seeds followed by coating for min. 3 hours until all liquid had been soaked up by the seeds. Thereafter, the coated seeds were put flat on open trays for drying over night at room temperature.
(§3) Treated seeds were then placed into pots (7 cm diameter) on the surface of sandy loam, pressed down, flat covered with additional soil and finally covered with sandy soil, also pressed down, watered, and kept under good growth conditions in a greenhouse, until the plants had reached 2-leaf-stage (BBCH 12).
(§4) At that stage, post-emergence application of the specified herbicides was done on:
(§5) a) pot sets containing plants with safener-coated seeds as described above,
(§6) b) as a reference, pot sets of plants without seed treatment.
(§7) The herbicides were formulated as wettable powder (WP). Equivalent to the spray area, compound amounts were weighed out and diluted related to the water application rate (300 l/ha) to an aqueous suspension plus additive (1 l/ha MERO). Dosage related equivalents were conventionally sprayed on trays with the potted plants.
(§8) After application, the test plants were kept under good growth conditions in a greenhouse.
(§9) Assessment timings were 10 and 21 days after treatment (DAT) with the herbicide, by visual scoring of the crop damage in % (comparison of untreated with treated plants, either sprayed only with herbicide or with herbicide on plants with treated seeds).

[2] = system: spring wheat, TRZAS Triso; assay: as above; settings: for HER effect + SAF [%] (crop damage) / Reduction [%] / Reduction [Difference]: mefenpyr-diethyl 0.5 g a.i./kg seed; for HER effect [%] (crop damage, herbicide without safener): no safener
From the text: as §1, §2, §3, §4, §5, §6, §7, §8, §9

[3] = system: spring barley, HORVS Montoya; assay: Tank-mix; post-emergence: crop damage by herbicide with/without safener mefenpyr-diethyl; settings: 21 DAT
Description: (§10) Seeds of crops (spring wheat, TRZAS; spring barley, HORVS; maize, ZEAMA) were placed in sandy loam soil in peat pots, covered with soil and cultivated in a greenhouse under good growth conditions. Two to three weeks after sowing, the test plants were treated at the 1 to 3-leaf stage. The herbicide/safener active compound combinations according to the invention, formulated as wettable powders or emulsion concentrates, and, in parallel tests, the correspondingly formulated individual active compounds were sprayed onto the green parts of the plants in various dosages using an amount of water of 300 l/ha (converted).
(§11) The pots were returned under good growing conditions in a glasshouse and a visual assessment of herbicidal effects was made at intervals from 1 to 3 weeks after herbicide application (DAT=days after treatment). Assessment was on a percentage basis in comparison with untreated control plants (0%=no injury, 100%=complete kill).

[4] = system: spring wheat, TRZAS Triso; assay: as above; settings: 10 DAT
Description: as §10, §11

[5] = HER 32 g a.i./ha post-emergence
[6] = herbicide alone 32 g a.i./ha post-emergence
[7] = HER 2 g a.i./ha + mefenpyr-diethyl 50 g a.i./ha
[8] = HER 8 g a.i./ha + mefenpyr-diethyl 50 g a.i./ha
[9] = HER 32 g a.i./ha + mefenpyr-diethyl 100 g a.i./ha

COCCOC(=O)C1C=CC(NC(=O)C2(C)CC(c3cc(Cl)cc(C#N)c3)=NO2)C1 (centres unmarked) [Example 1.5]
HER effect + SAF ([1]; HER 2 g a.i./ha post-emergence): 0%
Reduction [%] ([1]; HER 2 g a.i./ha post-emergence): 100%
Reduction [Difference] ([1]; HER 2 g a.i./ha post-emergence): 20
HER effect + SAF [1, 5]: 60%
Reduction [%] [1, 5]: 25%
Reduction [Difference] [1, 5]: 20
HER effect ([1]; herbicide alone 2 g a.i./ha post-emergence): 20%
HER effect [1, 6]: 80%
HER effect + SAF [%] (crop damage) ([2]; 21 DAT, HER dose 8 g a.i./ha): 10%
Reduction [%] ([2]; 21 DAT, HER dose 8 g a.i./ha): 89%
Reduction [Difference] ([2]; 21 DAT, HER dose 8 g a.i./ha): 80
HER effect [%] (crop damage, herbicide without safener) ([2]; 21 DAT, HER dose 8 g a.i./ha): 90%
HER effect + SAF [%] (crop damage) ([2]; 21 DAT, HER dose 32 g a.i./ha): 30%
Reduction [%] ([2]; 21 DAT, HER dose 32 g a.i./ha): 68%
Reduction [Difference] ([2]; 21 DAT, HER dose 32 g a.i./ha): 65
HER effect [%] (crop damage, herbicide without safener) ([2]; 21 DAT, HER dose 32 g a.i./ha): 95%
HER effect + SAF [3, 7]: 0%
Reduction [%] [3, 7]: 100%
Reduction [Difference] [3, 7]: 20
HER effect ([3]; herbicide alone 2 g a.i./ha): 20%
HER effect + SAF [4, 7]: 0%
Reduction [%] [4, 7]: 100%
Reduction [Difference] [4, 7]: 50
HER effect ([4]; herbicide alone 2 g a.i./ha): 50%

COC(=O)C1C=CC(NC(=O)C2(C)CC(c3cccc(F)c3)=NO2)C1 (centres unmarked) [Example 1.20]
HER effect + SAF ([1]; HER 8 g a.i./ha post-emergence): 10%
Reduction [%] ([1]; HER 8 g a.i./ha post-emergence): 67%
Reduction [Difference] ([1]; HER 8 g a.i./ha post-emergence): 20
HER effect + SAF [1, 5]: 20%
Reduction [%] [1, 5]: 75%
Reduction [Difference] [1, 5]: 60
HER effect ([1]; herbicide alone 8 g a.i./ha post-emergence): 30%
HER effect [1, 6]: 80%
HER effect + SAF [%] (crop damage) ([2]; 10 DAT, HER dose 8 g a.i./ha): 0%
Reduction [%] ([2]; 10 DAT, HER dose 8 g a.i./ha): 100%
Reduction [Difference] ([2]; 10 DAT, HER dose 8 g a.i./ha): 20
HER effect [%] (crop damage, herbicide without safener) ([2]; 10 DAT, HER dose 8 g a.i./ha): 20%
HER effect + SAF [%] (crop damage) ([2]; 10 DAT, HER dose 32 g a.i./ha): 0%
Reduction [%] ([2]; 10 DAT, HER dose 32 g a.i./ha): 100%
Reduction [Difference] ([2]; 10 DAT, HER dose 32 g a.i./ha): 50
HER effect [%] (crop damage, herbicide without safener) ([2]; 10 DAT, HER dose 32 g a.i./ha): 50%
HER effect + SAF [3, 8]: 0%
Reduction [%] [3, 8]: 100%
Reduction [Difference] [3, 8]: 30
HER effect + SAF [3, 9]: 40%
Reduction [%] [3, 9]: 50%
Reduction [Difference] [3, 9]: 40
HER effect ([3]; herbicide alone 8 g a.i./ha): 30%
HER effect ([3]; herbicide alone 32 g a.i./ha): 80%
HER effect + SAF [4, 8]: 0%
Reduction [%] [4, 8]: 100%
Reduction [Difference] [4, 8]: 20
HER effect + SAF [4, 9]: 30%
Reduction [%] [4, 9]: 40%
Reduction [Difference] [4, 9]: 20
HER effect ([4]; herbicide alone 8 g a.i./ha): 20%
HER effect ([4]; herbicide alone 32 g a.i./ha): 50%
